# From ChEMBL document CHEMBL1135611, “Thrombin inhibition by novel benzamidine derivatives: a free-energy perturbation study” (J Med Chem, 2002)
# Molecular target: Prothrombin (Homo sapiens, UniProt P00734)
# Test: Binding Affinity to Thrombin
row,Ki,SMILES
1,300 nM,NC(N)c1ccccc1
2,620 nM,NC(N)c1ccc(CC(=O)C(=O)O)cc1
